Earlier results in US20060211721A1, “Nutraceutical formulation of a cognitive enhancement system” (priority 2005, published 2006).

Conditions: background statement

## C/C=C1\[C@H]2C=C(C)C[C@]1(N)c1ccc(=O)[nH]c1C2 [huperzine, Huperzine A]
  oral bioavailability: high oral bioavailability
  penetration through the blood brain barrier: good penetration through the blood brain barrier
